Source: patent publication US12702702B2, “Application of Caerin 1.1/1.9 combined with anti-CD47 antibody in preparing drug for treating melanoma” (WNL BIOMED TECH PTY. LTD., priority 2022, dated 2026)
Ends that are not written are not given here.

Legend:
[1] = test system: B16 cells; assay: MDSC and macrophage proportions in B16 tumor tissue by flow cytometry; assay type: in vivo, C57BL/6 mice; settings: 30 μg F1/F3 daily for 7 days, tumor DAY 13, versus PBS
Method: (§1) • 1. Experiment objects: 6 C57BL/6 mice were divided into 2 groups with 3 mice in each group. • 2. Experimental process: Each C57BL/6 mouse was subcutaneously inoculated with 4×10^5 B16 cells, and time of tumor bearing was recorded as DAY 0. The two groups were injected with 100 μL of PBS solution containing 30 μg of F1/F3 (i.e., Caerin 1.1/Caerin 1.9) respectively on DAY 3; and the negative control group was injected with 100 μL of PBS solution every day for consecutive 7 days. B16 tumor tissues were taken and treated into single cell suspensions on DAY 13 for flow staining and detected by using a flow cytometer. Selected antibodies were as follows: FITC-CD45.2, Percp-cy5.5-CD11b, APC-Ly6G, BV421-Ly6c, FVS510 dye, and PE-F4/80. A modeling method was the same as above, splenic organs of mice were taken and processed into single cell suspensions on DAY 13, m-MDSC was sorted by using a flow cytometer, and four groups were set up: a PBS group, a PBS+GMCSF group, an F(F1/F3) group, and an F(F1/F3)+GMCSF group. The sorted cells were counted, each group was provided with two multiple wells, with 100,000 cells each well, 10 ng/ml of GMCSF was added to each group, and after three days of stimulating culture, the cells were detected by using the flow cytometer. Selected antibodies were as follows: FITC-CD45.2, Percp-cy5.5-CD11b, APC-Ly6G, BV421-Ly6c, FVS510 dye, and PE-F4/80. • 3. […]

[2] = test system: B16 cells; assay: In vivo B16 tumor model, intratumoral injection: survival time and tumor weight; parameters: species or system C57BL/6 mice; settings: 30 μg injected daily for 7 days from DAY 3; alone
Method: • 1. Experiment objects: 12 C57BL/6 mice were divided into 3 groups with 4 mice in each group. • 2. Experiment method: • 2.1 Detection of tumor weight: A. Each C57BL/6 mouse was subcutaneously inoculated with 4×10^5 B16 cells, and time of tumor bearing was recorded as DAY 0. On DAY 3, the three groups were respectively injected with 100 μL of PBS solution containing 30 μg of F1/F3 (i.e., Caerin 1.1/Caerin 1.9), 100 μL of PBS solution containing 30 μg of P3, and 100 μL of PBS solution for the negative control group every day, administered for 7 consecutive days; B. a modeling method was the same as above, there were 8 mouse in each group, which were killed at DAY 13, and the tumor was taken and weighed. • 2.2 Detection of cell activity: The experimental process was the same as that in 2.1, tumor tissues were taken and treated into single cell suspensions on DAY 13 for flow staining and detected by using a flow cytometer, and selected flow antibodies were as follows: FITC-CD45.2, APC-cy7-CD3e, Percp-cy5.5-CD4, PE-cy7-CD8a, APC-cy7-B220, PE-NK1.1, PE-F4/80, Percp-cy5.5-CD11b, and FVS510 dye. […]

[3] = test system: B16 cells; assay: F1/F3 treatment of nude mice bearing tumor model; assay type: in vivo; settings: 30 μg intratumoral for 7 days from DAY 3
[4] = test system: B16 cells; assay: Apoptosis detection (Annexin V-EGFP kit) in B16 cells; assay type: cell-based; settings: 10 μg/mL, cultured overnight, versus P3 control
Method: (§2) • 1. An MTT assay was used to detect cell survival condition: 7×10^4 B16 cells per well were cultured overnight with F1/F3 at different concentrations (0, 6, 8, 10, 12, 14, 16, 18, 20 μg/mL) in 4 duplicate wells, and the cell survival condition was detected by using an MTT kit (a product number: C0009M) and an IC50 value was calculated by drawing. Latest results of two independent experiments were shown. • 2. Detection of cell apoptosis: it was divided into a test group and a control group, and the B16 cells were cultured with a complete medium (composed of 1640 basic medium+fetal bovine serum from South American+double antibody (mixed with penicillin and streptomycin at a ratio of 1:1) at a volume ratio of 90:9:1), where Caerin 1.1/Caerin 1.9 was added to the test group with a final concentration of 10 μg/mL, and P3 was added to the control group with a same final concentration of 10 μg/mL. The cells were cultured overnight in a 5% CO2 incubator at 37° C., and their apoptosis conditions were detected by an apoptosis kit (an Annexin V-EGFP apoptosis detection kit, with a product number: C1067M). II. Experimental Results: • 1. In FIG. 1, A represented the cell survival condition at different concentrations, and B represented a calculated survival rate. […] In FIG. 2, A was a cell apoptosis distribution diagram, and B was a statistical analysis result.

[5] = test system: B16 cells; assay: MTT assay for B16 cell survival; assay type: cell-based; settings: B16 cells cultured overnight with F1/F3 at 0-20 μg/mL, MTT kit
Method: as §2

[6] = test system: B16 cells; assay: Flow cytometry of tumor-infiltrating immune cells after F1/F3 injection; assay type: in vivo, C57BL/6 mice; settings: DAY 13, flow cytometry
Method: • 1. Experiment objects: 12 C57BL/6 mice were divided into 3 groups with 4 mice in each group. • 2. Experiment method: • 2.1 Detection of tumor weight: A. Each C57BL/6 mouse was subcutaneously inoculated with 4×10^5 B16 cells, and time of tumor bearing was recorded as DAY 0. On DAY 3, the three groups were respectively injected with 100 μL of PBS solution containing 30 μg of F1/F3 (i.e., Caerin 1.1/Caerin 1.9), 100 μL of PBS solution containing 30 μg of P3, and 100 μL of PBS solution for the negative control group every day, administered for 7 consecutive days; B. a modeling method was the same as above, there were 8 mouse in each group, which were killed at DAY 13, and the tumor was taken and weighed. • 2.2 Detection of cell activity: The experimental process was the same as that in 2.1, tumor tissues were taken and treated into single cell suspensions on DAY 13 for flow staining and detected by using a flow cytometer, and selected flow antibodies were as follows: FITC-CD45.2, APC-cy7-CD3e, Percp-cy5.5-CD4, PE-cy7-CD8a, APC-cy7-B220, PE-NK1.1, PE-F4/80, Percp-cy5.5-CD11b, and FVS510 dye. Changes of macrophage subtypes were detected, tumor tissues were taken and treated into single cell suspensions on DAY 13 for flow staining and detected by using the flow cytometer, and selected flow antibodies were as follows: FITC-CD45.2, PE-F4/80, Percp-cy5.5-CD11b, BV421-Ly6C, and FVS510 dye. • 3. In FIG. 3, A was the survival time of Caerin 1.1/Caerin 1.9 for combined treatment of melanoma-bearing mice, and B was weighted data of tumor size of each group.

[7] = test system: m-MDSC; assay: Sorted splenic m-MDSC, in vitro GMCSF stimulation culture; assay type: cell-based, C57BL/6 mice; settings: 10 ng/ml GMCSF, three days culture, compared with the PBS group
Method: as §1

[8] = CD47 and SIRPα expression in B16 tumor tissue by flow cytometry; assay type: in vivo, C57BL/6 mice; settings: DAY 13, flow cytometry
Method: (§3) • 1. Experiment objects: 21 C57BL/6 mice were divided into 3 groups with 7 mice in each group. • 2. Experiment method: A modeling method was the same as that in Experiment example 3, the experiment was divided into a PBS group, a P3 group and an F1/F3 group, tumor tissues were taken and treated into single cell suspensions on DAY 13 for flow staining and detected by using a flow cytometer, two experiments were carried out continuously, and flow antibodies were selected as follows: FITC-CD45.2, FVS510 dye, and BV421-CD47. • 3. Experimental results: This is a summary of results of two independent experiments, and the specific experimental results were shown in FIG. 9.

[9] = test system: CD47; assay: as above; assay type: in vivo, C57BL/6 mice; settings: DAY 13, flow cytometry
Method: as §3

Caerin 1.1/Caerin 1.9: Caerin 1.1 and Caerin 1.9 polypeptides used together, mass ratio 1:1 (chain 1 GLLSVLGSVAKHVLPHVLPHVVPVIAEHL-NH2; chain 2 GLFGVLGSIAKHVLPHVVPVIAEKL-NH2; not fully specified; ends and bridges not checked)
proportion of MDSC, m-MDSC and PMN-MDSC [1]: tended to decrease
proportion of tumor macrophages in CD45.2+ cells [1]: rising trend
tumor growth in vivo (survival time, tumor weight) [2]: effectively inhibit tumor growth
survival time of tumor-bearing nude mice [3]: significantly prolonged
apoptosis of B16 cells [4]: significant apoptosis-inducing effect
IC50 (IC50 half lethal dose), cell survival [5]: 11.76 µg/mL
number of tissue-resident macrophages for inhibiting tumor immunity [6]: decreased
expression of INFα receptors in macrophages ([6]; tumor tissue): increased
number of CD8+T cells and CD4+T cells ([6]; tumor tissue): increased
number of inflammatory macrophages for promoting tumor immunity ([6]; tumor tissue): increased
number of macrophages ([6]; tumor tissue): increased
macrophages after GMCSF stimulus differentiation of splenic m-MDSC [7]: more macrophages
expression of SIRPα on macrophages [8]: decreased
expression of CD47 on tumor cells [9]: increased obviously
